{
  "source": "paper PMC6325219",
  "about": "“Preclinical Characterization of NVR 3-778, a First-in-Class Capsid Assembly Modulator against Hepatitis B Virus” (Antimicrobial Agents and Chemotherapy, 2018)",
  "key": {"HBV": {"test_system": "HBV", "test": "Combination study of NVR 3-778 with nucleos(t)ide analogs in HepG2.2.15 cells (MacSynergy II, CalcuSyn)", "type": "cell-based, hepatitis B virus (GT D)", "procedure": "The effect of the compound combinations on cell viability was evaluated by measuring the intracellular ATP levels of HepG2.2.15 cells.\nHepG2.2.15 cells were seeded in 96-well plates at a density of 40,000 cells/well and incubated with serially diluted compounds at a final DMSO concentration of 0.5%. In combination studies, cells were treated with compounds either alone or in combination after combining the compounds in a checkerboard format. In studies examining the effect of human serum, serially diluted NVR 3-778 was added into cell culture medium containing 0% to 40% human serum (BioreclamationIVT). Cells were incubated with the compounds for 3 days, after which the medium was removed, fresh medium containing the compounds was added to the cells, and the cells were incubated for another 3 days prior to harvesting of the supernatants or cells for antiviral assays. To quantify intracellular encapsidated rcDNA or encapsidated pgRNA, cells were first solubilized using lysis buffer containing 1% NP-40 and 10 mM CaCl2. The cytoplasmic fraction was then treated with S7 nuclease (6 units) to remove nonencapsidated nucleic acids, after which the S7 nuclease was inactivated by the addition of EDTA (0.5 M). To quantify extracellular HBV DNA or HBV RNA, supernatants from HepG2.2.15 cells were treated with Turbo DNase at 37°C for 60 min, followed by inactivation of DNase at 75°C for 15 min. The levels of HBV DNA were determined by a bDNA assay as described above (Affymetrix). Supernatants or cell lysates containing HBV RNA were treated with proteinase K (2.5 µg) at 50°C for 40 min, transferred to a capture plate containing HBV RNA probe sets, and hybridized overnight at 55°C. Captured HBV RNA was measured by the addition of a chemiluminescent substrate using a QuantiGene assay (Affymetrix). To determine the cytotoxicity effect of the compounds on proliferating cells, HepG2.2.15 cells were seeded in 96-well plates at a density of 10,000 cells/well and incubated with serially diluted compounds at a final DMSO concentration of 0.5% for 3 days, after which the medium was removed, fresh medium containing the compounds was added to the cells, and the cells were incubated for another 3 days. At day 6, the CellTiter-Glo reagent was added to the cells and viability was determined according to the manufacturer’s protocol (Promega). Luminescence signals were measured at 0.2 s using a Victor X4 multimode plate reader (PerkinElmer).\n(§1) To determine percent inhibition, the mean background signal from wells containing only culture medium was subtracted from the signal for all other samples, and percent inhibition at each compound concentration was calculated by normalization to the signals for HepG2.2.15 cells treated with 0.5% DMSO. […] Both CalcuSyn and MacSynergy II (Ann Arbor, MI) software were used to evaluate the effect of compound combinations ([27]). After data analysis at the 95% confidence level, values of synergy or antagonism of <25 µM^2% were defined as insignificant, those between 25 and 50 µM^2% were defined as minor, those between 50 and 100 µM^2% were defined as moderate, and those of >100 µM^2% were defined as strong."}, "[1]": {"test_system": "HBV rtL180M/M204V/N236T variant", "test": "microbe, parasite or virus in culture", "type": "cell-based, hepatitis B virus", "source_text": "(§2) Plasmids containing HBV DNA with rtN236T, rtA181V, rtA181V/N236T, and rtL180M/M204V/N236T were generated using the GT B WT or rtL180M/M204V DNA-containing plasmids and site-directed mutagenesis (Agilent Technologies). A panel of nine different HBV core variants (cW102G, cW102R, cI105V, cI105L, cI105T, cT109S, cT109M, cT109I, and cY118F) was generated, also using the GT B WT DNA-containing plasmid and site-directed mutagenesis. The full-length genome from all plasmids was sequenced to confirm that only the intended nucleotide change(s) was present. Finally, HBV sequences from genotypes A (GenBank accession number AF305422), C (GenBank accession number AB033550), D (GenBank accession number V01460), E (GenBank accession number AB274971), F (GenBank accession number AB036912), G (GenBank accession number AF160501), and H (GenBank accession number AB375159) were gene synthesized as 1.1 times the genome length together with part of the CMV promoter at the 5′ end. The gene-synthesized piece was validated by sequencing and subcloned into the pCMV-HBV plasmid using the restriction sites SalI and NdeI (Genewiz, USA).\n(§3) HepG2 cells were seeded in 96-well plates at a density of 20,000 cells/well and allowed to attach overnight at 37°C in 5% CO2. Cells were cotransfected with the HBV plasmids (100 ng/well) and a Gaussia expression plasmid (10 ng/well) (Thermo Scientific) using the Lipofectamine LTX Plus transfection reagent (Life Technologies). Transfection mixtures were removed after overnight incubation, and cells were treated with serially diluted NVR 3-778 at a final dimethyl sulfoxide (DMSO) concentration of 0.5%. After 3 days of incubation with the compound, the supernatants were collected and secreted Gaussia luciferase was measured using a Gaussia Flash luciferase assay kit (Thermo Scientific). Cells were lysed with 0.33% NP-40 (Thermo Scientific), and the cytoplasmic fractions were treated with 2 units of Turbo DNase (Invitrogen) and 10 units of S7 nuclease (Roche) in CutSmart buffer (New England Biolabs) containing 25 µM CaCl2 (G-Biosciences) at 37°C for 60 min, followed by inactivation of the enzymes at 75°C for 15 min. Samples were diluted into lysis buffer (Affymetrix) containing 2.5 µg proteinase K (Affymetrix) at 50°C for 40 min. Intracellular encapsidated HBV DNA was denatured for 30 min at 25°C in 0.2 M NaOH (Sigma) and incubated with HBV DNA probes designed to hybridize to the minus-strand HBV DNA (Affymetrix). The denatured DNA was subsequently detected using a QuantiGene assay kit, according to the branched DNA (bDNA) assay recommended by the manufacturer (Affymetrix).\nas §1"}, "[2]": {"test_system": "HBV rtL180M/M204V variant", "test": "microbe, parasite or virus in culture", "type": "cell-based, hepatitis B virus", "source_text": "as §2, §3, §1"}, "[3]": {"conditions": "HepG2.2.15 cells, 6 days, LMV 0.15-1.5 μM"}, "[4]": {"conditions": "ratio of mean EC50 against variant over WT HBV, HepG2 cells"}, "[5]": {"conditions": "in combination with NVR 3-778, HepG2.2.15 cells, 6 days, MacSynergy II, 95% confidence"}},
  "note": "Marks after values point to notes of the source that are not given here.",
  "data": [
    {"smiles": "O=C(Nc1cc(F)c(F)c(F)c1)c1ccc(F)c(S(=O)(=O)N2CCC(O)CC2)c1", "note": "[NVR 3-778]", "values": [
      {"measurement": "Effect of adding 0.4 μM NVR 3-778 to LMV on secreted HBV RNA", "setting": "HBV; [3]", "result": "partially reversed the increase in the level of secreted HBV RNA induced by LMV"},
      {"measurement": "Effect of adding 2 μM and 4 μM NVR 3-778 to LMV on secreted HBV RNA", "setting": "HBV; [3]", "result": "completely reverted the LMV effect"},
      {"measurement": "EC50 fold change, rtL180M/M204V/N236T", "setting": "[1]; [4]", "result": "1.4 ± 0.5^d fold"},
      {"measurement": "EC50 fold change, rtL180M/M204V", "setting": "[2]; [4]", "result": "1.3 ± 0.6^d fold"}
    ]},
    {"smiles": "Nc1ccn([C@@H]2CS[C@H](CO)O2)c(=O)n1", "note": "[LMV, lamivudine, reference compound]", "values": [
      {"measurement": "Antagonism", "setting": "HBV; [5]", "result": "−14.3", "unit": "μM^2%"},
      {"measurement": "Synergy", "setting": "HBV; [5]", "result": 5.1, "unit": "μM^2%"},
      {"measurement": "CalcuSyn-predicted effect", "setting": "HBV; in combination with NVR 3-778, based on overall CI", "result": "Additive"},
      {"measurement": "EC50", "setting": "[1]; Hepatitis B virus, HepG2, read-out: EC50, rtL180M/M204V/N236T variant", "result": "> 100", "unit": "µM"},
      {"measurement": "EC50", "setting": "[2]; Hepatitis B virus, HepG2, read-out: EC50 (mean), rtL180M/M204V variant", "result": "> 100", "unit": "µM"}
    ]}
  ]
}
